“Also recorded” adds a separate entry of the source.
Columns and labels:
patients with dry AMD = experiment: Incidence of all neoplasms and basal cell carcinoma in patients with dry AMD (Example 6); format: in vivo, human; settings: for Basal Cell Carcinoma, number of patients: placebo 5 of 82; for Basal Cell Carcinoma, incidence: placebo 6.1%; for All neoplasms, number of patients: placebo 14 of 82; for All neoplasms, incidence: placebo 17.1%
Protocol: Patients with dry AMD were selected. Patients are divided into three groups. Group I (n=82) received a placebo. Group II (n=80) received fenretinide at a dose of 100 mg/day. Group III (n=84) received fenretinide at a dose of 300 mg/day. Incidence of all neoplasms and basal cell carcinoma was determined for each group.

[1] = system: human that suffers from geographic atrophy (GA), secondary to age related macular degeneration (AMD); experiment: Rate of skin neoplasms/cancer in patients with geographic atrophy secondary to AMD (Example 1); format: in vivo; settings: orally 100 mg/day, placebo 9.8%
Protocol: Two patient cohorts were selected. Each member of each patient cohort was a human that suffers from geographic atrophy (GA), secondary to age related macular degeneration (AMD). The mean concentration of serum retinol binding protein in the patients at baseline was approximately 60 μg/mL. The average concentration of serum retinol binding protein in normal individuals of the same type is about 25 μg/mL to about 40 μg/mL. In the first patient population, individuals were orally administered 100 mg/day fenretinide. In the second patient population, individuals were orally administered a placebo. The placebo group developed skin neoplasms (including basal cell carcinoma, squamous cell carcinoma, and/or melanoma) at a rate of 9.8%. In the first patient population, individuals developed cancer (including basal cell carcinoma, squamous cell carcinoma, and/or melanoma) at a rate of 2.5%. […] FIG. 4 illustrates the cytotoxicity of fenretinide on the melanoma cell line (B16 (RL)). FIG. 5 illustrates the effect of fenretinide and compounds of Formula II (designated SIR-1001 and SIR-1005) on two human melanoma cell lines (M207 and SK-MEL28).

Sigma 1 receptor = biological target: T1, Sigma 1 receptor (Cavia porcellus, UniProt Q60492); experiment: Sigma 1 receptor binding assay with [3H](+)-pentazocine; settings: competing ligand 10 μM; [3H](+)-pentazocine 1.0 nM or 0-10 nM; guinea pig brain membrane
T1 construct: guinea pig brain membrane aliquots were thawed, and then suspended at a concentration of 1 mg protein/ml; from tissue; host or cells: guinea pig brain membranes
T1 sequence (Q60492 whole entry): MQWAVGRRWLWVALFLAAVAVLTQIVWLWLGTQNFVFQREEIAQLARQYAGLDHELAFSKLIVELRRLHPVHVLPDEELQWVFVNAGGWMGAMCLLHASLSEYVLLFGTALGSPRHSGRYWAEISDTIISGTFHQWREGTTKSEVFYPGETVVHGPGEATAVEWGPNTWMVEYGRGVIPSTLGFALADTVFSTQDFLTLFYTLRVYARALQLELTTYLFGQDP
Protocol: Sigma 1 receptor binding assays were performed according to DeHaven-Hudkins et al. (1992). In brief, guinea pig brain membrane aliquots were thawed, and then suspended at a concentration of 1 mg protein/ml by adding fresh sigma 1 assay buffer (50 mM Tris-HCl; pH 7.4, 25° C.). Each glass assay tube was kept at a final volume of 1.0 ml, contained 0.25 mg protein, and was incubated for 150 min at 37° C. with [3H](+)-pentazocine. [3H](+)-Pentazocine was used at either a single concentration (1.0 nM, FIG. 6) or at a range of concentrations (0-10 nM, FIG. 7). Nonspecific binding was defined by haloperidol (1.0 μM). Competing ligand concentration (e.g., fenretinide) was 10 μM. Assays were terminated by addition of ice-cold […] (5 ml) and filtration, using a cell harvester (Brandel, Gaithersburg, Md.), through glass fiber filters (GF/B) that had been pretreated with polyethyleneimine (0.5%) for 60 min. Tubes and filter discs were washed (3×3.5 ml) with ice-cold assay buffer, and the filter discs dried under vacuum. Scintillation counting was carried out after incubation of the discs with cocktail for at least 18 h.

[2] = system: complement genes (Crry, CFH, MCP-1, CD59a, Daf2, and CD59b); experiment: Expression of complement genes in ocular tissue by RT-PCR; format: in vivo, BALB/c mice; settings: RT-PCR normalized to 18S RNA
Protocol: The effects of fenretinide on expression of complement genes was studies in […].
Fenretinide supplemented chow ([…]), or control chow, was fed to pregnant mice. Birthed litters were maintained for 4 weeks. Mice were euthanized after 4 weeks and ocular tissue was prepared for RNA extraction. Expression of complement genes was determined by RT-PCR. Data was normalized to expression of 18S RNA.
Litters of mice were separated into 2 groups just prior to weaning (4 weeks of age). Mice in Group I were fed fenretinide supplemented chow (1 g fenretinide/kg chow) for 7 weeks. Mice in Group II were fed control chow for 7 weeks. Mice were euthanized after 7 weeks and ocular tissue was prepared for RNA extraction. Expression of complement genes was determined by RT-PCR. Data was normalized to expression of 18S RNA.

## CC1=C(/C=C/C(C)=C/C=C/C(C)=C/C(=O)Nc2ccc(O)cc2)C(C)(C)CCC1 [fenretinide, N-(4-hydroxyphenyl)retinamide]
Patients with dry AMD; 100 mg/day fenretinide, n = 80
  Basal Cell Carcinoma, number of patients: 2
  Basal Cell Carcinoma, incidence: 2.5%
  All neoplasms, number of patients: 4
  All neoplasms, incidence: 5.0%
Patients with dry AMD; 300 mg/day fenretinide, n = 84
  Basal Cell Carcinoma, number of patients: 3
  Basal Cell Carcinoma, incidence: 3.6%
  All neoplasms, number of patients: 10
  All neoplasms, incidence: 11.9%
[1]
  rate at which individuals developed cancer (including basal cell carcinoma, squamous cell carcinoma, and/or melanoma): 2.5%
Sigma 1 receptor
  binding of [3H]Pentazocine to Sigma-1 receptor in the presence of competing ligand: reduced binding
[2]; high dose: supplemented chow (Ig fenretinide/kg chow) fed to pregnant mice, litters maintained 4 weeks, FIG. 9
  expression of complement genes Crry, CFH, MCP-1, CD59a, CD59b, Daf2 in the eye: down-regulation; also recorded: down-regulates
[2]; low dose: chow 1 g fenretinide/kg for 7 weeks from weaning, FIG. 8
  expression of complement genes Crry, CFH, MCP-1, CD59a, CD59b, Daf2 in the eye: up-regulation; also recorded: up-regulates

— US20130012591A1, “PROPHYLAXIS OF SKIN CANCER WITH RETINAMIDES” (Revision Therapeutics, Inc., priority 2009, published 2013)
